Patent US20080161288A1, “COMPOUNDS” (Pfizer Inc., priority 2006, published 2008)

Experiments:
[1] = molecular target: T1, porcine beta-2 adrenoceptor (Sus scrofa, UniProt Q28997); experiment: cAMP assay in CHO cells transfected with the porcine beta-2 adrenoceptor; format: cell-based; details: cAMP (DiscoveRx Hit Hunter cAMP II) in CHO cells transfected with porcine beta-2 adrenoceptor, 30 minutes with compound, 0.5 mM IBMX
T1 construct: expressed in transfected cells; host or cells: CHO cells
Method in brief: (§1)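 Transfected CHO cells were preincubated 30 min with 0.5 mM IBMX in PBS. Compound (5×10^−12 to 10^−5 M) was then applied for 30 min at 37 °C, 5% CO2, followed by cAMP measurement with an enzyme-fragment complementation kit. Duplicates, EC50 from curve fitting.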

[2] = molecular target: T2, bovine beta-2 adrenoceptor (Bos taurus, UniProt Q28044); experiment: cAMP assay in CHO cells transfected with the bovine beta-2 adrenoceptor; format: cell-based; details: cAMP (DiscoveRx Hit Hunter cAMP II) in CHO cells transfected with bovine beta-2 adrenoceptor, 30 minutes with compound, 0.5 mM IBMX
T2 construct: expressed in transfected cells; host or cells: CHO cells
T2 sequence (Q28044 whole entry): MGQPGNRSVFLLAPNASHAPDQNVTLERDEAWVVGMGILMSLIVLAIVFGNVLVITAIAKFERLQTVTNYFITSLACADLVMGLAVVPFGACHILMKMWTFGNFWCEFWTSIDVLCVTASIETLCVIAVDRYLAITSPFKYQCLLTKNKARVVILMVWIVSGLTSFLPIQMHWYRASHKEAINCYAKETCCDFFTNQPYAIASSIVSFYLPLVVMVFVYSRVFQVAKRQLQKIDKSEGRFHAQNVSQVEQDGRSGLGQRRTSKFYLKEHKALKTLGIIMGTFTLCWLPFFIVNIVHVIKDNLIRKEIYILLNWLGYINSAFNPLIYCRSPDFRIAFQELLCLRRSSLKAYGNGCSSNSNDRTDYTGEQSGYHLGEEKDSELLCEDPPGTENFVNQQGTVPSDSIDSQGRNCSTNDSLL
Method in brief: as §1

T1 sequence (Q28997 whole entry): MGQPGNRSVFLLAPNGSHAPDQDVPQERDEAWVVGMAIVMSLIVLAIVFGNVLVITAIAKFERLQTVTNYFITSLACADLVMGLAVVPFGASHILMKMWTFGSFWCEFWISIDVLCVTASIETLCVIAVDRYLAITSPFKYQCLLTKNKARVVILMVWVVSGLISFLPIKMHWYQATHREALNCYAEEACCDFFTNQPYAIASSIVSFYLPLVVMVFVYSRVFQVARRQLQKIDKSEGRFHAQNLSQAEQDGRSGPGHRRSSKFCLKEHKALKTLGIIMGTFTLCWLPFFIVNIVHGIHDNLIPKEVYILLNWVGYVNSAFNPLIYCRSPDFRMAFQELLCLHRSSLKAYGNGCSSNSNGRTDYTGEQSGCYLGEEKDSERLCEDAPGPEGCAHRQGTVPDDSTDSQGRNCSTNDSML

SMILES | EC50 [1] [nM] | EC50 [2] [nM]
CC(CCc1ccccc1)N[C@@H]1CCn2c(=O)[nH]c3cccc(c32)[C@H]1O (single isomer, unassigned) [Example 9e, 7-Hydroxy-6-[(1-methyl-3-phenylpropyl)amino]-4,5,6,7-tetrahydroimidazo[4,5,1-jk][1]benzazepin-2(1H)-one] | 2.3 | 7
CC(CCc1ccc(OCC2CC2)cc1)N[C@@H]1CCn2c(=O)[nH]c3cccc(c32)[C@H]1O (mixture of isomers) [Example 1c, 6-({3-[4-(Cyclopropylmethoxy)phenyl]-1-methylpropyl}amino)-7-hydroxy-4,5,6,7-tetrahydroimidazo[4,5,1-jk][1]benzazepin-2(1H)-one] | 4.8 | 12.2
CC(CCc1cccc(C(=O)O)c1)N[C@@H]1CCn2c(=O)[nH]c3cccc(c32)[C@H]1O (single isomer, unassigned) [Example 53] | 78.8 | 167
CC(CCc1ccc2c(c1)CCO2)N[C@@H]1CCn2c(=O)[nH]c3cccc(c32)[C@H]1O (single isomer, unassigned) [Example 3a, 6-{[3-(2,3-Dihydro-1-benzofuran-5-yl)-1-methylpropyl]amino}-7-hydroxy-4,5,6,7-tetrahydroimidazo[4,5,1-jk][1]benzazepin-2(1H)-one] | 8.1 | 34.3
CC(CCc1ccccc1)N[C@@H]1CCn2c(=O)[nH]c3cccc(c32)[C@H]1O (single isomer, unassigned) [Example 9d, 7-Hydroxy-6-[(1-methyl-3-phenylpropyl)amino]-4,5,6,7-tetrahydroimidazo[4,5,1-jk][1]benzazepin-2(1H)-one] | 2.3 | 5.9
CC(CCc1ccc(O)c(F)c1)NC1CCn2c(=O)[nH]c3cccc(c32)C1O (single isomer, unassigned) [Example 36, 6-{[3-(3-Fluoro-4-hydroxyphenyl)-1-methylpropyl]amino}-7-hydroxy-4,5,6,7-tetrahydroimidazo[4,5,1-jk][1]benzazepin-2(1H)-one] | 2.2 | 1.4
CC(CCc1ccc(F)cc1O)N[C@@H]1CCn2c(=O)[nH]c3cccc(c32)[C@H]1O (mixture of isomers) [Example 24, 6-{[3-(4-Fluoro-2-hydroxyphenyl)-1-methylpropyl]amino}-7-hydroxy-4,5,6,7-tetrahydroimidazo[4,5,1-jk][1]benzazepin-2(1H)-one] | 4.2 | 2.7
COc1ccc(O)c(CCC(C)N[C@@H]2CCn3c(=O)[nH]c4cccc(c43)[C@H]2O)c1 (mixture of isomers) [Example 21, 7-Hydroxy-6-{[3-(2-hydroxy-5-methoxyphenyl)-1-methylpropyl]amino}-4,5,6,7-tetrahydroimidazo[4,5,1-jk][1]benzazepin-2(1H)-one] | 3.1 | 3.2
CC(CCc1ccc2c(c1)OCO2)NC1CCn2c(=O)[nH]c3cccc(c32)C1O (stereo not shown) [Example 12, 6-{[3-(1,3-Benzodioxol-5-yl)-1-methylpropyl]amino}-7-hydroxy-4,5,6,7-tetrahydroimidazo[4,5,1-jk][1]benzazepin-2(1H)-one] | 11.7 | 23.1
C[C@H](CCc1ccccc1O)N[C@@H]1CCn2c(=O)[nH]c3cccc(c32)[C@H]1O [Example 6f, 7-Hydroxy-6-{[3-(2-hydroxyphenyl)-1-methylpropyl]amino}-4,5,6,7-tetrahydroimidazo[4,5,1-jk][1]benzazepin-2(1H)-one] | 1.9 | 1
Cc1cccc(CCC(C)N[C@@H]2CCn3c(=O)[nH]c4cccc(c43)[C@H]2O)c1O (mixture of isomers) [Example 17, 7-Hydroxy-6-{[3-(2-hydroxy-3-methylphenyl)-1-methylpropyl]amino}-4,5,6,7-tetrahydroimidazo[4,5,1-jk][1]benzazepin-2(1H)-one] | 3 | 3.3
CC(CCc1cccc(O)c1)N[C@@H]1CCn2c(=O)[nH]c3cccc(c32)[C@H]1O (mixture of isomers) [Example 43, 7-Hydroxy-6-{[3-(3-hydroxyphenyl)-1-methylpropyl]amino}-4,5,6,7-tetrahydroimidazo[4,5,1-jk][1]benzazepin-2(1H)-one] | 5.6 | 7.2
CC(CCc1ccc2c(c1)CCO2)N[C@@H]1CCn2c(=O)[nH]c3cccc(c32)[C@H]1O (single isomer, unassigned) [Example 3b, 6-{[3-(2,3-Dihydro-1-benzofuran-5-yl)-1-methylpropyl]amino}-7-hydroxy-4,5,6,7-tetrahydroimidazo[4,5,1-jk][1]benzazepin-2(1H)-one] | 108 | 456
CC(CCc1c(F)cccc1Cl)N[C@@H]1CCn2c(=O)[nH]c3cccc(c32)[C@H]1O (mixture of isomers) [Example 32, 6-{[3-(2-Chloro-6-fluorophenyl)-1-methylpropyl]amino}-7-hydroxy-4,5,6,7-tetrahydroimidazo[4,5,1-jk][1]benzazepin-2(1H)-one] | 2.9 | 8.6
